Inconclusive results are not listed. The source made the active and inactive calls. How the calls were made is not given here. Where only a bound is given, the exact number is not on record here.

As a reminder, the inhibition is the change of the read-out against control, counted positive when it falls. As a reminder, the IC50 is the point on the concentration scale where inhibition reaches its midpoint.

Assay [1] is described as follows: blockers of dynein-driven microtubule transport – imaging, high-content imaging, dose response (AID 463136).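 Further: mouse mammary adenocarcinoma 3617.4 cells expressing GFP-tagged rat glucocorticoid receptor.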 Conditions: HCS imaging, dynein-mediated cargo transport inhibition; inhibition at max concentration; at 50 µM; stronger effect = higher value.
The subject of assay [2] is HCS imaging, dynein-mediated cargo transport inhibition. The assay is described as above.

As to `COc1cccc(-n2nc(C#N)c(Cl)cc2=O)c1`, the inhibition in assay [1] was 48.5%. The IC50 in assay [2] was 11.2 µM.

`Cc1nc([N+](=O)[O-])c(Br)n1CC(=O)c1cccc([N+](=O)[O-])c1`: in assay [1], the inhibition was 91.4%. In assay [2], the IC50 is 9.94 µM.

`CCN1C/C(=C/c2cccc([N+](=O)[O-])c2)C(=O)/C(=C/c2cccc([N+](=O)[O-])c2)C1`: the inhibition in assay [1] turned out to be 84.7%. Besides, in assay [2], the IC50 was 22.6 µM.

In the case of `COc1ccc(N2C(=O)CC(Sc3ncn[nH]3)C2=O)c(OC)c1` (stereo not drawn), the inhibition in assay [1] worked out at 5.17%. Also, the IC50 in assay [2] was > 50 µM (inactive).

`CCCCCCN(C(=O)CCl)c1ccccc1`: the inhibition in assay [1] is 80.3%. The IC50 in assay [2] is 17.2 µM.

`CC(C)(C)C1C/C(=C/c2ccco2)C(=O)/C(=C/c2ccco2)C1` (stereo not drawn): the inhibition in assay [1] was found to be 101%. For the same compound, in assay [2], the IC50 is 24.9 µM.

As to `Cc1cccc2cc3c(N)c(C(=O)N4CCCc5ccccc54)sc3nc12`, in assay [1], the inhibition came out at 116%. For the same compound, the IC50 in assay [2] was 35.2 µM.

Regarding `COc1ccc(Oc2cc(NC(=O)c3nn(C)cc3[N+](=O)[O-])cc([N+](=O)[O-])c2)cc1`, in assay [1], the inhibition was 69.9%. In assay [2], the IC50 is 43 µM.

As to `CC1C/C(=C/c2ccco2)C(=O)/C(=C/c2ccco2)C1` (stereo not drawn), the inhibition in assay [1] turned out to be 64.1%. For the same compound, in assay [2], the IC50 was 39.2 µM.

In the case of `COc1ccccc1NS(=O)(=O)c1cc([N+](=O)[O-])ccc1N/N=C/c1c(C)[nH]c2ccccc12`, the inhibition in assay [1] was determined as 16.5%. Moreover, the IC50 in assay [2] is > 50 µM (inactive).

In the case of `CC(=O)N(C1CC(C)C(C#N)(C#N)C1(C#N)C#N)N(C)C` (stereo not drawn), the inhibition in assay [1] worked out at 5.79%. Moreover, the IC50 in assay [2] was > 50 µM (inactive).

On to `COC(=O)c1cc([N+](=O)[O-])c(-n2cncn2)c([N+](=O)[O-])c1`, for which the inhibition in assay [1] came to 12.4%. In addition, in assay [2], the IC50 was > 50 µM (inactive).

Turning to `O=C1C=C(NC2=CC3OC(c4ccccc4)OCC3OC2=O)CCC1` (stereo not drawn), the inhibition in assay [1] is 13%. Moreover, the IC50 in assay [2] is > 50 µM (inactive).

`CN(C)CC(C(=O)c1ccccc1)c1ccccc1` (stereo not drawn): the inhibition in assay [1] stood at 70.5%. In assay [2], the IC50 is 8.37 µM.

For `Cc1cc(N2CCCC2)c(F)cc1/C=C\[N+](=O)[O-]`, the inhibition in assay [1] is 126%. Further, the IC50 in assay [2] was 25.2 µM.

In the case of `CCOC(=O)c1c(NC(=O)CCl)sc(CN(C)C)c1-c1ccccc1`, in assay [1], the inhibition came to 74.1%. Moreover, the IC50 in assay [2] was 29.9 µM.

On to `Cc1cc(C)c(C)c(S(=O)(=O)ON2C(=O)c3ccccc3C2=O)c1C`, for which the inhibition in assay [1] is -3.7%. Besides, the IC50 in assay [2] was > 50 µM (inactive).

`COCc1cc(S(=O)c2ccc(Cl)cc2)nc(C)n1` (stereo not drawn): the inhibition in assay [1] was determined as 86.5%. For the same compound, the IC50 in assay [2] was 15.6 µM.

In the case of `O=C(c1nnsc1S(=O)c1ccc(Cl)cc1)N1CCOCC1` (stereo not drawn), in assay [1], the inhibition amounted to 76.9%. The IC50 in assay [2] is 2.18 µM.

For the compound `Cc1ccc(C)c2nc3sc(C(=O)N4CCCc5ccccc54)c(N)c3cc12`, the inhibition in assay [1] amounted to 34.8%. Further, in assay [2], the IC50 is > 50 µM (inactive).

`CC(=O)OCCCNc1cc(SCc2ccco2)c2nonc2c1[N+](=O)[O-]`: the inhibition in assay [1] is 67.7%. Also, the IC50 in assay [2] was 35.1 µM.

On to `CCN1CCN(C2=CC3=CC(=C(C#N)C#N)CCC3CC2)CC1` (stereo not drawn), for which, in assay [1], the inhibition came to 99.2%. In assay [2], the IC50 is 30.6 µM.

As for `N#Cc1cccc(NC(=O)CSc2ccc3c4c(cccc24)C(=O)c2ccccc2-3)c1`, in assay [1], the inhibition is 104%. The IC50 in assay [2] is 33.3 µM.

`O=C(NC1CCCC1)C(c1ccc(F)cc1)N(Cc1ccc(F)cc1)C(=O)CCl` (stereo not drawn): the inhibition in assay [1] is 73.1%. For the same compound, the IC50 in assay [2] was 38.5 µM.

For the compound `COC(=O)/C=C\C(=O)Nc1cccc([N+](=O)[O-])c1`, the inhibition in assay [1] turned out to be 5.31%. Besides, in assay [2], the IC50 was > 50 µM (inactive).

As for `CCOc1ccc2noc3c2c1C(=O)c1ccccc1-3`, the inhibition in assay [1] is 99.2%. In addition, the IC50 in assay [2] is 11 µM.

Turning to `COC(CN(C(=O)CCl)C(C(=O)NC1CCCCC1)c1ccc(Cl)cc1)OC` (stereo not drawn), in assay [1], the inhibition was found to be 82.6%. The IC50 in assay [2] is 22.6 µM.

On to `CCN(CC)c1ccc2cc(-c3nc4ccccc4[nH]3)c(=O)oc2c1`, for which, in assay [1], the inhibition amounted to 98.9%. For the same compound, the half-maximal inhibitory concentration (IC50) in assay [2] was 21.9 µM.

`CCCCN(C)C1=CC2=CC(=C(C#N)C#N)CCC2CC1` (stereo not drawn): in assay [1], the inhibition worked out at 99.2%. Further, the IC50 in assay [2] was 13.6 µM.

Turning to `COC(=O)c1cc(=O)n(Cc2ccc(F)cc2)c(=Nc2ccccc2)s1`, in assay [1], the inhibition came out at 15.5%. For the same compound, the IC50 in assay [2] is > 50 µM (inactive).

For the compound `COc1cccc(N2C(=O)NC(=O)/C(=C\c3ccc([N+](=O)[O-])s3)C2=O)c1`, the inhibition in assay [1] was found to be 85.4%. Moreover, the IC50 in assay [2] is 13.5 µM.

As to `CC1=NN(c2ccccc2)C(=O)/C1=C/C=C/c1ccccc1`, the inhibition in assay [1] worked out at 22.7%. Further, the IC50 in assay [2] was > 50 µM (inactive).

Turning to `Cc1ccccc1-n1nnnc1Sc1nnnn1-c1ccccc1`, in assay [1], the inhibition stood at 87.8%. In addition, the IC50 in assay [2] is 17.6 µM.

`Cc1ccc(C(=O)Oc2oc(-c3ccco3)nc2C=Nc2ccc(Cl)cc2)cc1`: the inhibition in assay [1] was 65.2%. Also, the IC50 in assay [2] is 46.3 µM.

For the origin of these results see PubChem BioAssay AID463136 (University of Pittsburgh Molecular Library Screening Center, 2010).
